In patent US20220151236A1, “NOVEL OXADIAZOLE COMPOUNDS FOR CONTROLLING OR PREVENTING PHYTOPATHOGENIC FUNGI” (PI INDUSTRIES LTD., priority 2019, published 2022):

Tests used:
Colletotrichum capsici = Colletotrichum capsici (Anthracnose): radial mycelial growth on potato dextrose agar; format: cell-based; conditions: Colletotrichum truncatum, 168 h, 25° C., 60% relative humidity, seven days, read-out: control (radial growth compared to the untreated check)
Phakopsora pachyrhizi = Phakopsora pachyrhizi Test on Soybean (preventive activity, greenhouse); format: in vivo; conditions: preventive spray on young Soybean plants, inoculated one day after treatment, rated 3, 7, 10 and 15 days after application, read-out: Efficacy (% control), disease severity compared to the untreated check
Outline: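 Preventive greenhouse test: young soybean plants sprayed with compound in 2% DMSO/acetone plus emulsified water at stated rates, inoculated one day later with 2×10^5 P. pachyrhizi conidia, held at 22-24° C and 80-90% RH. Disease severity (0-100%) rated 3, 7, 10 and 15 days after application; % control relative to untreated plants.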

Pyricularia Oryzae = assay: microbe, parasite or virus in culture; format: cell-based; conditions: 168 h, read-out: control (radial growth compared to the untreated check)
Botrytis cinerea = Botrytis cinerea (Gray Mold): radial mycelial growth on potato dextrose agar; format: cell-based; conditions: 300 ppm, 22° C., 90% relative humidity, seven days
Alternaria solani = Alternaria solani (Early Blight of Tomato/Potato): radial mycelial growth on potato dextrose agar; format: cell-based; conditions: 168 h, potato dextrose agar, 25° C., 60% relative humidity, seven days, read-out: control (radial growth compared to the untreated check)
Protocol: Compounds were dissolved in 0.3% dimethyl sulfoxide and then added to potato dextrose agar medium just prior to dispensing it into petri dishes. 5 mL medium with the compound in the desired concentration was dispensed into 60 mm sterile petri-plates. After solidification each plate was seeded with a 5 mm size mycelial disc taken from the periphery of an actively growing virulent culture plate. Plates were incubated in growth chambers at 25° C. temperature and 60% relative humidity for seven days and then the radial growth was measured and compared to that of the untreated control. Compounds 2 85 89 92 94 108 113 114 131 138 142 143

Structure (SMILES)	inhibition of growth at 300 ppm (Colletotrichum capsici) [%]	pest or weed control at 500 ppm (Phakopsora pachyrhizi) [%]	inhibition of growth at 300 ppm (Pyricularia Oryzae) [%]	control (radial growth compared to the untreated check) (Botrytis cinerea) [%]	inhibition of growth at 300 ppm (Alternaria solani) [%]
COc1cccc(SCc2cn3ccc(-c4noc(C(F)(F)F)n4)cc3n2)c1 [Compound 46, 3-(2-(((3-methoxyphenyl)thio)methyl)imidazo[1,2-a]pyridin-7-yl)-5-(trifluoromethyl)-1,2,4-oxadiazole]	≥ 70	≥ 70			
FC(F)(F)c1nc(-c2ccn3cc(CSc4ccccc4)nc3c2)no1 [Compound 50, 3-(2-((phenylthio)methyl)imidazo[1,2-a]pyridin-7-yl)-5-(trifluoromethyl)-1,2,4-oxadiazole]	≥ 70				
COCCNC(=O)c1cn2cc(-c3noc(C(F)(F)F)n3)ccc2n1 [Compound 65, N-(2-methoxyethyl)-6-(5-(trifluoromethyl)-1,2,4-oxadiazol-3-yl)imidazo[1,2-a]pyridine-2-carboxamide]	≥ 70	≥ 70			
O=C(c1cn2cc(-c3noc(C(F)(F)F)n3)ccc2n1)N1CCC1 [Compound 69, azetidin-1-yl(6-(5-(trifluoromethyl)-1,2,4-oxadiazol-3-yl)imidazo[1,2-a]pyridin-2-yl)methanone]	≥ 70	≥ 70			
CCOCc1cn2cc(-c3noc(C(F)(F)F)n3)ccc2n1 [Compound 80, 3-(2-(ethoxymethyl)imidazo[1,2-a]pyridin-6-yl)-5-(trifluoromethyl)-1,2,4-oxadiazole]			≥ 70	≥ 70	
FC(F)(F)c1nc(-c2ccc3nc(CSc4cc(Cl)cc(Cl)c4)cn3c2)no1 [Compound 111, 3-(2-(((3,5-dichlorophenyl)thio)methyl)imidazo[1,2-a]pyridin-6-yl)-5-(trifluoromethyl)-1,2,4-oxadiazole]	≥ 70	≥ 70			
CC(C)CSCc1cn2cc(-c3noc(C(F)(F)F)n3)ccc2n1 [Compound 112, 3-(2-((isobutylthio)methyl)imidazo[1,2-a]pyridin-6-yl)-5-(trifluoromethyl)-1,2,4-oxadiazole]	≥ 70	≥ 70			
O=S(=O)(Cc1cn2cc(-c3noc(C(F)(F)F)n3)ccc2n1)c1ccccc1 [Compound 116, 3-(2-((phenylsulfonyl)methyl)imidazo[1,2-a]pyridin-6-yl)-5-(trifluoromethyl)-1,2,4-oxadiazole]	≥ 70	≥ 70			
O=S(=O)(Cc1cn2cc(-c3noc(C(F)(F)F)n3)ccc2n1)c1ccc(Cl)c(Cl)c1 [Compound 117, 3-(2-(((3,4-dichlorophenyl)sulfonyl)methyl)imidazo[1,2-a]pyridin-6-yl)-5-(trifluoromethyl)-1,2,4-oxadiazole]	≥ 70				
COc1ccc(S(C)(=O)=NC(=O)Cc2cn3cc(-c4noc(C(F)(F)F)n4)ccc3n2)cc1 (stereo not shown) [Compound 138, N-((4-methoxyphenyl)(methyl)(oxo)-λ^6-sulfaneylidene)-2-(6-(5-(trifluoromethyl)-1,2,4-oxadiazol-3-yl)imidazo[1,2-a]pyridin-2-yl)acetamide]			≥ 70		≥ 70
CS(=O)(=NC(=O)Cc1cn2cc(-c3noc(C(F)(F)F)n3)ccc2n1)c1ccc(Br)cc1 (stereo not shown) [Compound 142, N-((4-bromophenyl)(methyl)(oxo)-λ^6-sulfaneylidene)-2-(6-(5-(trifluoromethyl)-1,2,4-oxadiazol-3-yl)imidazo[1,2-a]pyridin-2-yl)acetamide]			≥ 70		≥ 70
COc1ccnc(S(C)(=O)=NC(=O)Cc2cn3cc(-c4noc(C(F)(F)F)n4)ccc3n2)c1 (stereo not shown) [Compound 146, N-((4-methoxypyridin-2-yl)(methyl)(oxo)-λ^6-sulfaneylidene)-2-(6-(5-(trifluoromethyl)-1,2,4-oxadiazol-3-yl)imidazo[1,2-a]pyridin-2-yl)acetamide]			≥ 70		≥ 70
